How the values were obtained:
Type in all cases: in vivo
[1] = tested on: Klebsiella pneumoniae ATCC 10031; test: Efficacy in murine Klebsiella pneumoniae septicemia; conditions: ATCC10031; ICR mice inoculated intraperitoneally with Klebsiella pneumoniae ATCC 10031 at 3×10^7 CFU; administered intravenously 1 hour after inoculation (doses in mg/kg); mortality recorded 7 days; non-linear regression
Experimental: (§1) Efficacy studies were performed in an K. pneumoniae murine septicemia model according to models published elsewhere (Goldstein, B. P., G. Candiani, T. M. Arain, G. Romano, I. Ciciliato, M. Berti, M. Abbondi, R. Scotti, M. Mainini, F. Ripamonti, and et al. 1995. Antimicrobial activity of MDL 63,246, a new semisynthetic glycopeptide antibiotic Antimicrob Agents Chemother. 39:1580-1588; Misiek, M., T. A. Pursiano, F. Leitner, and K. E. Price 1973. Microbiological properties of a new cephalosporin, BL-S 339: 7-(phenylacetimidoyl-aminoacetamido)-3-(2-methyl-1,3,4-thiadiazol-5-ylthio methyl)ceph-3-em-4-carboxylic acid Antimicrob Agents Chemother. 3:40-48).
(§2) The compound was dissolved in 10% DMSO, 0.1% Tween 80, 0.9% NaCl solution and administered intravenously at 10 ml/kg at 1 hour after bacterial inoculation. The compound was administered at 20, 10, 5, 2.5, and 1.25 mg/kg. A control with ampicillin was included in the evaluation.
(§3) Male or female ICR mice weighing 24±2 g from MDS Pharma Services were used for the evaluation. Food and water was given ad libitum. Groups of 6 mice weighing 24±g were used for the experiment. Mice were inoculated intraperitoneally with Klebsiella pneumoniae ATCC 10031 at 3×10^7 CFU in 0.5 ml of Brain Heart Infusion Broth (Difco) containing 5% mucin (Sigma). Mortality was recorded once daily for 7 days following bacterial inoculation.

[2] = tested on: Proteus vulgaris ATCC 13315; test: Efficacy in murine Proteus vulgaris septicemia; conditions: ATCC13315; ICR mice inoculated intraperitoneally with Proteus vulgaris ATCC 13315 at 1×10^8 CFU; administered intravenously 1 hour after inoculation (doses in mg/kg); mortality recorded 7 days; non-linear regression
Experimental: as §1, with “P. vulgaris” for “K. pneumoniae”
as §2
as §3, with “Proteus vulgaris” for “Klebsiella pneumoniae”, “13315” for “10031”, “1×10^8” for “3×10^7”

[3] = tested on: Escherichia coli ATCC 25922; test: Efficacy in murine E. coli septicemia; conditions: ATCC25922; ICR mice inoculated intraperitoneally with Escherichia coli ATCC 25922 at 4×10^4 CFU; administered intravenously 1 hour after inoculation (doses in mg/kg); mortality recorded 7 days; non-linear regression
Experimental: as §1, with “E. coli” for “K. pneumoniae”
The compound was dissolved in 10% DMSO, 0.1% Tween 80, 0.9% NaCl solution and administered intravenously at 10 ml/kg at 1 hour after bacterial inoculation. The compound was administered at 80, 40, 20, 5, 2.5, and 1.25 mg/kg. A control with ampicillin was included in the evaluation.
as §3, with “22±2” for “24±2”, “22+g” for “24±g”, “Escherichia coli” for “Klebsiella pneumoniae”, “25922” for “10031”, “4×10^4” for “3×10^7”

CC1(C)S[C@@H]2[C@H](NC(=O)[C@H](N)c3ccccc3)C(=O)N2[C@H]1C(=O)O [ampicillin]
ED50 [1]: 6.8 mg/kg
ED50 [2]: 29.7 mg/kg
ED50 [3]: 14.1 mg/kg

— US7691843B2, “N-hydroxyamide derivatives possessing antibacterial activity” (Pfizer Inc., priority 2002, dated 2010)
